Laboratory results reported in publication PMC2818328 (Bioorganic & medicinal chemistry letters, 2009).
pKi: −log10 of the molar value.

Tests used:
GCPII = GCPII (Homo sapiens, UniProt Q04609); assay: fluorescence-based NAALADase assay, in vitro GCPII inhibitory activity; conditions: relative to 32a
cloned human GCPII = conditions: cited from earlier work
[1] = system: inflammatory and neuropathic pain models; conditions: cited from earlier work

GCPII, sequence (Q04609 whole entry): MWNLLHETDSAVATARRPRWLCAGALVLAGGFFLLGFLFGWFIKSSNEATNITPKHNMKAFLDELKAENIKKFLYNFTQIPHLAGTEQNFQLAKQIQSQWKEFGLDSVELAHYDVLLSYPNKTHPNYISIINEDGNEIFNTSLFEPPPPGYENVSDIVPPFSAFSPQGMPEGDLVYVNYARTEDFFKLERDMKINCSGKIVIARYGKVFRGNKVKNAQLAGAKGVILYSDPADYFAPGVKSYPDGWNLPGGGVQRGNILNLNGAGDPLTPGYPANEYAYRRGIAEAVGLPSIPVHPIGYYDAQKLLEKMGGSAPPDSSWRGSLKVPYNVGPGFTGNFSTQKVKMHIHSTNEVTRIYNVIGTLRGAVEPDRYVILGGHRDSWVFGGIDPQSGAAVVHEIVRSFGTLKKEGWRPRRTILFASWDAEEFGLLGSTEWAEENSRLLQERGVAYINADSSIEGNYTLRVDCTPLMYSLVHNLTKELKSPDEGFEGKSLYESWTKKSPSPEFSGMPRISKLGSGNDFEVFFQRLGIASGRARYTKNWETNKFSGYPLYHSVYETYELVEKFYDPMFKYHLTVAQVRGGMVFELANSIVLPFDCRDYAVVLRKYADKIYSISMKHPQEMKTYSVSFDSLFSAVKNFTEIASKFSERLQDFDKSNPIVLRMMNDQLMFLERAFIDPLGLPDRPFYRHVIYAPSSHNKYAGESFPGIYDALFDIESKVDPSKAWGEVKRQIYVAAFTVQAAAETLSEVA

fold stronger binding affinity for GCPII compared to 32a (GCPII) [fold]	Structure (SMILES)	pKi (cloned human GCPII)	penetration of the blood-brain barrier [1]	analgesic activity ([1]; high doses (50–100 mg/kg) needed)
4	O=C(N[C@@H](CCCCNC(=O)c1ccc(I)cc1)C(=O)O)NC1(C(=O)O)CC1 [32c]			
120	C=CC[C@H](NC(=O)N[C@@H](CCCCNC(=O)c1ccc(I)cc1)C(=O)O)C(=O)O [32d]			
	CC(C)C[C@H](NC(=O)N[C@@H](CCC(=O)O)C(=O)O)C(=O)O [ZJ-43, (S)-2-(3-((S)-1-carboxy-3-methylbutyl)ureido)pentanedioic acid]	9.10	low penetration	demonstrated analgesic activity
